Results published in patent US8003615B2, “Stable vitamin B6 derivative” (Daiichi Fine Chemical Co., Ltd., priority 2003, dated 2011).
One block for each compound: values may come before it.

What was measured:
[1] = Thermal stability of aqueous solution kept at 50° C., HPLC; type: physicochemical; details: 0.5% (w/v) aqueous solution; for coloring of the aqueous solution after the warming: 50° C. for 90 days; for decomposed by warming: pH about 6.3-7.2, 50° C. for 90 days
Experimental: A 0.5% (w/v) aqueous solution of pyridoxine 3-β-D-glucoside (pH 6.7) in a volume of 0.3 ml was sealed in a 1-ml volume glass ampoule, and kept at 50° C. under light shielding. The sample was warmed for 90 days, and analyzed during the warming by HPLC (analysis conditions were the same as those applied in Test Example 1) to measure a pyridoxine 3-β-D-glucoside content. A solution of pyridoxine hydrochloride of the same concentration (adjusted to pH 6.7) was treated in the same manner, and the results were compared.
Aqueous solutions (0.5% (w/v)) of pyridoxine 3-β-D-glucoside hydrochloride, pyridoxal 3-β-D-glucoside, pyridoxamine 3-β-D-glucoside, pyridoxine 3-β-D-galactoside, pyridoxine hydrochloride, pyridoxal hydrochloride, and pyridoxamine hydrochloride (adjusted to pH 6.3 to 7.2 with HCl or NaOH) were each sealed in a volume of 0.3 ml in a 1-ml volume glass ampoule, […] in the same manner as in Test Example 2.
0.5% (w/v) Aqueous solutions of pyridoxine 3,4′-cyclic sodium phosphate and pyridoxine hydrochloride (adjusted to pH 6.5 to 6.8) were each sealed in a volume of 0.3 ml in a 1-ml volume glass ampoule, and warming at 50° C. and HPLC analysis were performed in the same manner as in Test Example 2.

[2] = type: physicochemical; details: 0.5% (w/v) aqueous solution; for coloring of the aqueous solution after the light irradiation: D65 fluorescent lamp 13,000 Lx; for decomposition after light irradiation: pH about 6.3-7.2, D65 fluorescent lamp 13,000 Lx, room temperature, 14 days
Experimental: A 0.5% (w/v) aqueous solution of pyridoxine 3-β-D-glucoside (pH 6.7) in a volume of 0.3 ml was enclosed in a 1-ml volume glass ampoule, and irradiated with a D65 fluorescent lamp (Toshiba) for 14 days. The irradiation was performed at room temperature with an illumination of 13,000 Lx. Samples before the irradiation and after 1 day, 7 days and 14 days of the irradiation were analyzed by HPLC to measure a pyridoxine 3-β-D-glucoside content. A solution of pyridoxine hydrochloride of the same concentration (adjusted to pH 6.7) was treated in the same manner, and the results were compared. The HPLC measurement conditions were as follows.
Column: Inertsil ODS-3 ([…], ([…], φ4.6×150 mm, GL Science Inc.)
Eluent acetonitrile:0.1% (v/v) trifluoroacetic acid, 5 mM sodium 1-hexanesulfonate=1:9
Column temperature: 40° C.
Aqueous solutions (0.5% (w/v)) of pyridoxine 3-β-D-glucoside hydrochloride, pyridoxal 3-β-D-glucoside, pyridoxamine 3-β-D-glucoside, pyridoxine 3-β-D-galactoside, and pyridoxine hydrochloride (adjusted to pH 6.3 to 7.2 with HCl or NaOH) were each sealed in a volume of 0.3 ml in a 1-ml volume glass ampoule, and light irradiation and HPLC quantification were performed in the same manner as in Test Example 1. […] Test Example 4 (thermal stability of pyridoxine 3-β-D-glucoside hydrochloride and various 3-glycosides) […]

[3] = system: hairless mouse; details: 2% sample applied on the back 90 minutes before ultraviolet irradiation, 2 hours, 5 times/week, ten weeks; positive control DETAPAC
Experimental: It was evaluated whether or not the sample prepared by the following preparing method suppressed wrinkle formation caused by ultraviolet irradiation.
DETAPAC was used as a positive control.
Mice (10-week old) in each group consisting of 8 mice were applied with each of the aforementioned samples on the back 90 minutes before ultraviolet irradiation, and irradiated with ultraviolet rays of a fixed quantity (Toshiba FL20 S-BLB lamp) for 2 hours (5 times/week) over ten weeks to examine suppressing effect on wrinkle formation.
Wrinkle formation after the ultraviolet irradiation of ten weeks was graded in accordance with the “skin photoaging grades” mentioned below. The results were indicated as averages of the scores for eight mice.

[4] = system: mouse B16 melanoma cells; experiment: Test for melanin production suppression and cell survival rate in cultured cells; type: cell-based; set-up: key to Evaluation (whitening degree of B16 melanoma cells): +: whitening effect comparable to that of the control; ±: whitening effect a little weaker than that of the control; ×: no effect; −: test was not performed; details: for Evaluation (whitening degree of B16 melanoma cells): control 100 μg/ml kojic acid; for Cell growth rate: relative to control taken as 100%; for suppressing effect on melanin production: overall conclusion from the tables
Experimental: Cultured mouse B16 melanoma cells were used. An appropriate amount of MEM medium containing 10% FBS was added to wells of two 6-well plates, and the B16 melanoma cells were inoculated, and incubated at 37° C. with 5 volume % CO2. On the next day, a sample-containing solution was added so that the medium contained the vitamin B6 derivative (pyridoxine 3-β-D-glucoside or pyridoxine 3-β-D-glucoside hydrochloride) at a final solid concentrations shown in FIG. 20, and then mixed. On the 5th day of the culture, the medium was exchanged, and the sample-containing solution was again added. On the next day, the medium was removed, and for one plate, the cells were washed with phosphate buffer (pH 7.0), and then collected. Then, whitening degree of the cultured B16 melanoma cells was evaluated according to the criteria mentioned below by using 100 μg/ml kojic acid as a control. […] The cell growth rate is indicated with a relative ratio based on that of the control, which is taken as 100%.

[5] = 50° C., in pharmaceutical preparations; cited from earlier work
[6] = system: mouse B16 melanoma cells; experiment: Melanin production suppression by combination with whitening agent (arbutin); type: cell-based; details: substance and arbutin each 100 μM, 5 days culture, intracellular melanin relative to solvent control
Experimental: Cultured mouse B16 melanoma cells were used. A vitamin B6 derivative (pyridoxine 3-β-D-glucoside) and arbutin (Wako Pure Chemical Industries) dissolved in purified water at given concentrations were each added to the medium at a concentration of 100 μM. With exchanges of the medium during the culture, the cells were cultured for 5 days, and then collected. The cell number was counted, and then intracellular melanin was quantified. As a control added with a solvent, the medium added with purified water was used. Based on the amount of the melanin observed for the control added with the solvent, which was taken as 1, the relative amount of intracellular melanin observed for each sample concentration was considered a melanin production ratio.

[7] = final concentration 333.3 μg/mL

Compound: Cc1ncc(CO)c(C=O)c1O.Cl [pyridoxal hydrochloride, reference compound]
coloring of the aqueous solution after the warming [1]: colored in yellow
decomposed by warming [1]: ~55%

Compound: Cc1ncc(CO)c(C=O)c1O[C@@H]1O[C@H](CO)[C@@H](O)[C@H](O)[C@H]1O [pyridoxal 3-β-D-glucoside, Pyridoxal 3-β-D-glucoside]
coloring of the aqueous solution after the light irradiation [2]: no coloring was observed
coloring of the aqueous solution after the warming [1]: no coloring was observed
decomposed by warming [1]: almost no decomposition

Compound: Cc1ncc(CO)c(CN)c1O[C@@H]1O[C@H](CO)[C@@H](O)[C@H](O)[C@H]1O [pyridoxamine 3-β-D-glucoside, Pyridoxamine 3-β-D-glucoside]
coloring of the aqueous solution after the light irradiation [2]: no coloring was observed
decomposition after light irradiation [2]: not observed
coloring of the aqueous solution after the warming [1]: no coloring was observed
decomposed by warming [1]: almost no decomposition

Compound: Cc1ncc(CO)c(CO[C@H]2O[C@H](CO)[C@@H](O)[C@H](O)[C@H]2O)c1O [pyridoxine 4′-α-D-glucoside]
long term stability compared with pyridoxine hydrochloride [5]: superior long term stability

Compound: N-(4-pyridoxylmethylene)-L-serine 3-β-D-glucoside
decomposition after light irradiation [2]: no decomposition was observed

Compound: Cc1ncc(CO)c(CN)c1O.Cl [pyridoxamine hydrochloride, reference compound]
coloring of the aqueous solution after the warming [1]: colored in yellow
decomposed by warming [1]: ~85%

Second part, led by results:

coloring of the aqueous solution after the light irradiation [2]: no coloring was observed
decomposition after light irradiation [2]: not observed
coloring of the aqueous solution after the warming [1]: no coloring was observed
decomposed by warming [1]: almost no decomposition
Compound: Cc1ncc(CO)c(CO)c1O[C@@H]1O[C@H](CO)[C@H](O)[C@H](O)[C@H]1O [pyridoxine 3-β-D-galactoside, Pyridoxine 3-β-D-galactoside]

coloring of the aqueous solution after the light irradiation [2]: no coloring was observed
decomposition after light irradiation [2]: not observed
coloring of the aqueous solution after the warming [1]: no coloring was observed
decomposed by warming [1]: almost no decomposition
Compound: Cc1ncc(CO)c(CO)c1O[C@@H]1O[C@H](CO)[C@@H](O)[C@H](O)[C@H]1O.Cl [pyridoxine 3-β-D-glucoside hydrochloride]
suppressing effect on wrinkle formation (skin photoaging grades) [3]: comparable to or higher than that of DETAPAC
Evaluation (whitening degree of B16 melanoma cells) ([4]; final concentration 100 μg/mL): ×
Cell growth rate ([4]; final concentration 100 μg/mL): 100%
Evaluation (whitening degree of B16 melanoma cells) [4, 7]: ×
Cell growth rate [4, 7]: 100%
Evaluation (whitening degree of B16 melanoma cells) ([4]; final concentration 1000 μg/mL): ×
Cell growth rate ([4]; final concentration 1000 μg/mL): 97%
Evaluation (whitening degree of B16 melanoma cells) ([4]; final concentration 3333 μg/mL): +
Cell growth rate ([4]; final concentration 3333 μg/mL): 87%
suppressing effect on melanin production [4]: superior suppressing effect on melanin production

coloring of the aqueous solution after the light irradiation [2]: no coloring was observed
decomposition after light irradiation [2]: not observed
coloring of the aqueous solution after the warming [1]: no coloring was observed
decomposed by warming [1]: almost no decomposition
Compound: Cc1ncc(CO)c(CO)c1O[C@@H]1O[C@H](CO)[C@@H](O)[C@H](O)[C@H]1O [pyridoxine 3-β-D-glucoside, Pyridoxine 3-β-D-glucoside]
suppressing effect on melanin production in combination with arbutin [6]: superior suppressing effect on melanin production
Evaluation (whitening degree of B16 melanoma cells) ([4]; final concentration 10 μg/mL): ×
Cell growth rate ([4]; final concentration 10 μg/mL): 101%
Evaluation (whitening degree of B16 melanoma cells) ([4]; final concentration 30 μg/mL): ×
Cell growth rate ([4]; final concentration 30 μg/mL): 101%
Evaluation (whitening degree of B16 melanoma cells) ([4]; final concentration 100 μg/mL): ×
Cell growth rate ([4]; final concentration 100 μg/mL): 101%
Evaluation (whitening degree of B16 melanoma cells) ([4]; final concentration 300 μg/mL): ±
Cell growth rate ([4]; final concentration 300 μg/mL): 101%
Evaluation (whitening degree of B16 melanoma cells) ([4]; final concentration 1000 μg/mL): +
Cell growth rate ([4]; final concentration 1000 μg/mL): 102%
suppressing effect on melanin production [4]: superior suppressing effect on melanin production

decomposition after light irradiation [2]: no decomposition was observed
coloring of the aqueous solution after the warming [1]: no coloring was observed
decomposed by warming [1]: almost no decomposition
Compound: Cc1ncc(CO)c2c1OP(=O)([O-])OC2.[Na+] [pyridoxine 3,4′-cyclic sodium phosphate, Pyridoxine 3,4′-cyclic sodium phosphate]
